The data set in a line: Human HepG2 cell viability assay in 384 well format. It counts as toxicity, cell-based. On the set-up: dose 125 nL, time 70.5 hour; concentration not given beside the values. As to conditions: HepG2 cells, read-out: Inhibition.

SMILES strings stand for the structures.

Regarding `O=C(c1ccccc1F)N1CC(c2nc(C3CC3)no2)C1`, the cytotoxicity at 70.5 h was -11.5%. To `O=C(Nc1cccs1)N1CC(c2nc(C3CC3)no2)C1` belongs -5.71%; to `O=C(C1CCCC1)N1CC(c2nc(Cc3ccccc3)no2)C1`, -14.5%; to `CCOC(=O)CCC(=O)N1CC(c2nc(Cc3ccccc3)no2)C1`, -6.9%.

Consider `Cc1noc(C2CN(CC(=O)NCC3CCCO3)C2)n1` (stereo not given), for which the cytotoxicity at 70.5 h is -3.62%. Consider `N#Cc1cccc(C(=O)N2CC(c3nc(-c4cccnc4)no3)C2)c1`, for which the cytotoxicity at 70.5 h came out at 10%.

With `O=C(Cc1cccs1)N1CC(c2nc(-c3cnccn3)no2)C1`, the cytotoxicity at 70.5 h is -6.93%. To `O=C(c1ccsc1)N1CC(c2nc(-c3ccc[nH]c3=O)no2)C1` belongs 12.8%; to `O=C(c1ccc(Cl)s1)N1CC(c2nc(-c3ccc[nH]c3=O)no2)C1`, -8.84%; to `O=C(c1ccno1)N1CC(c2nc(-c3ccco3)no2)C1`, -1.91%.

Take `O=C(NCC(Cc1cccc(F)c1)N1CCCC1=O)c1ccc(=O)[nH]n1` (stereo not given): the cytotoxicity at 70.5 h stood at 1.13%. To `CCCC(=O)NCC(Cc1cccc(F)c1)N1CCCC1=O` (stereo not given) belongs -3.15%; to `CS(=O)(=O)NCC(Cc1cccc(F)c1)N1CCNC1=O` (stereo not given), -13.3%; to `O=S(=O)(Cc1ccccc1Cl)N1CCC2(CC1)OCCS2`, -5.23%. Regarding `CCc1ccccc1NC(=O)C1CN(C(C)=O)C1`, the cytotoxicity at 70.5 h amounted to 11.2%. Consider `N#Cc1ccccc1NC(=O)C1CN(C(=O)c2ccc3c(c2)OCO3)C1`, for which the cytotoxicity at 70.5 h was -7%.

Turning to `O=C(Cc1cccs1)N1CCOCC1CO` (stereo not given), the cytotoxicity at 70.5 h is -3.61%.

Turning to `C1CCN(c2nc(N3CCOCC3)nc3[nH]nnc23)CC1`, the cytotoxicity at 70.5 h is -5.52%. Take `O=C(NC1CCCC1)C1CCN(c2cc(-n3ccnc3)ncn2)CC1`: the cytotoxicity at 70.5 h worked out at 12.8%. `Cc1cccc(S(=O)(=O)NCC2CCN(c3cnccn3)CC2)c1`: the cytotoxicity at 70.5 h was -10.1%. Turning to `CCc1ccc(S(=O)(=O)NCC2CCN(c3cnccn3)CC2)s1`, the cytotoxicity at 70.5 h was -10.3%.

As for `O=C(Cc1ccccc1Cl)NCCN1CCC(c2cccs2)CC1`, the cytotoxicity at 70.5 h turned out to be 1.31%. As for `O=C(NCCc1ccccc1)NCCN1CCC(c2cccs2)CC1`, the cytotoxicity at 70.5 h is 8.49%.

With `CSCC(C)(O)CNC(=O)c1cc(Cl)ccc1Cl` (stereo not given), the cytotoxicity at 70.5 h is -7.98%. To `CSCC(C)(O)CNS(=O)(=O)c1ccc(F)cc1` (stereo not given) belongs -7.51%; to `CSCC(C)(O)CNS(=O)(=O)c1cccc(Cl)c1` (stereo not given), -4.18%; to `CSCC(C)(O)CNS(=O)(=O)c1ccc(Br)cc1` (stereo not given), 23.8%.

Consider `CSCCC(C)(O)CNC(=O)Nc1ccccc1C` (stereo not given), for which the cytotoxicity at 70.5 h is -6.41%.

Consider `O=C(NCCC(O)c1ccco1)c1ccco1` (stereo not given), for which the cytotoxicity at 70.5 h is -5.28%.

Regarding `CSc1ncccc1C(=O)NCCC(O)c1ccco1` (stereo not given), the cytotoxicity at 70.5 h was 1.61%. As to `O=C(NCCC(O)c1cccs1)c1ccc(Br)o1` (stereo not given), the cytotoxicity at 70.5 h was -10.7%. To `COc1ccc(Cl)cc1NC(=O)N1CCc2nc(NC(C)=O)sc2C1` belongs -5.4%.

In the case of `O=C(Nc1nc2c(s1)CN(S(=O)(=O)C1CC1)CC2)c1ccc(=O)[nH]c1`, the cytotoxicity at 70.5 h was -10.9%.

Regarding `COc1ccccc1C(=O)Nc1nc2c(s1)CN(S(=O)(=O)C1CC1)CC2`, the cytotoxicity at 70.5 h was -3.51%. Regarding `Cc1cc(C(=O)Nc2nc3c(s2)CN(S(=O)(=O)C2CC2)CC3)c(C)o1`, the cytotoxicity at 70.5 h was 4.31%. To `O=C(Nc1nc2c(s1)CN(S(=O)(=O)C1CC1)CC2)c1ccc(Cl)s1` belongs -11.1%; to `O=C(NCC1(O)CCOCC1)c1ccc(F)cc1`, -4.94%. Regarding `O=S(=O)(NCC1(O)CCOCC1)c1c(F)cccc1F`, the cytotoxicity at 70.5 h is -2.88%. In the case of `O=S(=O)(NCC1(O)CCOCC1)c1ccccc1Br`, the cytotoxicity at 70.5 h is -0.33%. Take `COc1ccccc1OCC(=O)NCC(C)(O)c1ccccc1` (stereo not given): the cytotoxicity at 70.5 h is -12.5%. In the case of `O=S(=O)(NCC1(O)CCOc2ccccc21)c1ccccc1F` (stereo not given), the cytotoxicity at 70.5 h is -4.25%. On to `O=S(=O)(NCC1(O)CCOc2ccccc21)c1ccccc1Br` (stereo not given), for which the cytotoxicity at 70.5 h was -0.163%.

For `Cc1cc(CNC(=O)c2ccno2)c(C)o1`, the cytotoxicity at 70.5 h was -7.21%. Consider `Cc1cc(CNC(=O)COc2ccccc2F)c(C)o1`, for which the cytotoxicity at 70.5 h was -0.958%. To `COc1cc(NC(=O)NCc2cc(C)oc2C)cc(OC)c1` belongs -5.36%; to `O=C1CC(NS(=O)(=O)c2ccc(Br)cc2)CN1` (stereo not given), -4.25%. As to `O=C(NC1CC(=O)N(C2CC2)C1)c1cccs1` (stereo not given), the cytotoxicity at 70.5 h worked out at 11.1%. For the molecule `CN(C)C(=O)c1cnn2c1OCCC2`, the cytotoxicity at 70.5 h was -2.65%. `CS(=O)(=O)N1CCN(C(=O)c2cnn3c2OCCC3)CC1`: the cytotoxicity at 70.5 h is -2.74%. `COc1ccccc1C(=O)N1CC2(COC(C)(C)OC2)C1`: the cytotoxicity at 70.5 h was -0.0905%. To `CC1(C)OCC2(CO1)CN(C(=O)c1ccccc1Br)C2` belongs -4.2%. To `CC(=O)Nc1cnc(-n2ccnc2)nc1` belongs -1.27%; to `CC(=O)N(C)CC(=O)Nc1cnc(-n2ccnc2)nc1`, 0.242%.

Turning to `COc1ccc(NC(=O)Nc2cnc(N3CCN(C)CC3)nc2)cc1Cl`, the cytotoxicity at 70.5 h was -0.129%. In the case of `Cc1ccc(NC(=O)Nc2cnc(N3CCN(C)CC3)nc2)cc1`, the cytotoxicity at 70.5 h came out at 27.1%. As for `O=S(=O)(Nc1cnc(N2CCCC2)nc1)c1ccc(F)cc1F`, the cytotoxicity at 70.5 h was -6.31%. Take `Cc1ccc(F)cc1S(=O)(=O)Nc1cnc(N2CCCC2)nc1`: the cytotoxicity at 70.5 h was -9.37%.

For `O=C(C[C@H]1[C@H]2CN(C(=O)c3cccnc3)C[C@@H]12)Nc1cccnc1`, the cytotoxicity at 70.5 h is -1.44%. To `CCCN1CCC2(Cc3ccccc3NC2=O)C1` (stereo not given) belongs -0.983%; to `CCOCC(=O)N1CC[C@H]2OCC[C@@H](c3nnc(C)o3)[C@H]2C1`, 0.355%. On to `Fc1cnc(N2CCOCC3(CCCNC3)C2)nc1` (stereo not given), for which the cytotoxicity at 70.5 h amounted to 12.2%. Consider `CC(C)C(=O)N1CCCC2(CCCN2Cc2cccnc2)C1` (stereo not given), for which the cytotoxicity at 70.5 h was found to be 1.65%. To `Cc1cnc(N2CCC3(CC2)CC(NS(C)(=O)=O)CO3)nc1` (stereo not given) belongs 1.23%. On to `CC(=O)N1CCO[C@@H]2CN(C(=O)c3ccc4ccccc4c3)CC[C@@H]2C1`, for which the cytotoxicity at 70.5 h is -2.64%. To `O=C(c1cc2c(s1)CCN2C(=O)C1CC1)N1CCCC1` belongs -4.7%; to `Cn1c(C(=O)NC2CCCC2)nc2c1CCN(Cc1ccccc1)C2`, -5.5%; to `Cc1cnc(N2CCC3(CC2)CC3CNC(=O)N(C)C)nc1` (stereo not given), -6.55%.

With `COCCC1COC2(CCN(C(=O)C3CCC3)CC2)C1` (stereo not given), the cytotoxicity at 70.5 h is -3.7%.

Regarding `Cc1nnc([C@@H]2CC[C@@H]3[C@@H](CCN3C3CCC3)O2)o1`, the cytotoxicity at 70.5 h was -4.45%.

As to `Fc1cnc(N2CCOCC3(CCCN(c4cnccn4)C3)C2)nc1` (stereo not given), the cytotoxicity at 70.5 h was -3.83%. In the case of `CN1CCN(C(=O)c2cc3c(s2)CCN3C(=O)C2CC2)CC1`, the cytotoxicity at 70.5 h was -1.1%. To `O=C(N1CCOCC1)N1CC[C@H]2[C@@H]1CCC(=O)N2c1ccccc1` belongs -1.24%; to `O=C(c1cnccn1)N1CCCC2(CCCN2Cc2cccnc2)C1` (stereo not given), -1.76%.

As for `Cn1cc(NC(=O)C2CC(c3ccccc3)C2)ccc1=O` (stereo not given), the cytotoxicity at 70.5 h was -15.7%. For the molecule `O=C(Cc1cn2ccsc2n1)N1CCCC(n2cccn2)C1` (stereo not given), the cytotoxicity at 70.5 h was -3.32%.

With `COc1cccc(-n2nnc(C(=O)N3CCOC(C)C3)c2C)c1` (stereo not given), the cytotoxicity at 70.5 h is -1.7%. On to `Cn1cc(NC(=O)N2CCC2c2ccccc2)ccc1=O` (stereo not given), for which the cytotoxicity at 70.5 h was -4.87%. To `c1cncc(-c2noc(CNCC3CCCN3c3cccnn3)n2)c1` (stereo not given) belongs -2.21%; to `Cc1nc(C(=O)N2CCCN(Cc3cnn(C)c3)CC2)ccc1C#N`, -8.5%. `CC(C)Oc1ccc(C(=O)N2CCCCC2Cn2cccn2)cn1` (stereo not given): the cytotoxicity at 70.5 h was -4.78%. As for `CCOc1ccc(C(=O)N2CCCC2Cn2cc(C)cn2)cn1` (stereo not given), the cytotoxicity at 70.5 h is -5.61%. To `NC(=O)CN1CC(c2nc(C3CC3)no2)C1` belongs -7.4%; to `O=C(CN1CC(c2nc(C3CC3)no2)C1)NCc1ccc(F)cc1`, -4.69%. In the case of `O=C(CN1CC(c2nc(C3CC3)no2)C1)NCC1CCCO1` (stereo not given), the cytotoxicity at 70.5 h is 3.91%. As to `O=C(CN1CC(c2nc(Cc3ccccc3)no2)C1)NCC1CCCO1` (stereo not given), the cytotoxicity at 70.5 h was -0.885%. Regarding `O=C(CN1CC(c2nc(-c3ccco3)no2)C1)NCc1ccc(F)cc1`, the cytotoxicity at 70.5 h came out at 0.546%.

In the case of `O=C(CN1CC(c2nc(-c3ccco3)no2)C1)NCC1CCCO1` (stereo not given), the cytotoxicity at 70.5 h came out at 13.7%.

Consider `Fc1ccc(COCC2CCN(Cc3ccccn3)CC2)cc1`, for which the cytotoxicity at 70.5 h is -4.18%. `CNC(=O)C1CCC2(CCN(c3nncs3)CC2)CO1` (stereo not given): the cytotoxicity at 70.5 h is -2.99%. For the molecule `CC(C)CN1CCCC2(CCN(c3ccccn3)C2)C1` (stereo not given), the cytotoxicity at 70.5 h stood at 8.64%. To `Cn1cc(CN2CC[C@H]3O[C@H](C(=O)NC4CC4)CC[C@H]32)c2ccccc21` belongs -3.36%; to `CC(=O)N1CCO[C@@H]2CN(C(=O)c3ccc4ncccc4c3)CC[C@@H]2C1`, -3.03%; to `O=S(=O)(C1CC1)N1CC[C@@H](OCC2CC2)[C@@H]1Cc1ccncc1`, -4.77%. Regarding `O=C(C[C@H]1[C@H]2CN(c3ncccn3)C[C@@H]12)Nc1cccnc1`, the cytotoxicity at 70.5 h was found to be 4.76%. To `c1cnc(N2CC[C@@H]3O[C@@H](COCc4cccnc4)CC[C@@H]32)nc1` belongs -0.916%; to `CN(Cc1ccncc1)C1CC2(CCN(c3ncccn3)CC2)C1`, -3.37%; to `CN(C)CC1COCCN1C(=O)c1ccccc1C(=O)c1ccccc1` (stereo not given), -7.66%.

On to `Cc1ccccc1C(=O)N1CCOCC1CN(C)C` (stereo not given), for which the cytotoxicity at 70.5 h was -9.03%. To `COc1cccc(C(=O)N2CCOCC2CN(C)C)c1OC` (stereo not given) belongs -2.02%; to `CN(C)CC1COCCN1C(=O)C1(c2cccs2)CCCC1` (stereo not given), 0.993%.

The values above are taken from ChEMBL document CHEMBL3507680, “University of Dundee, Gates Library screen for HepG2 cell viability”.
